One data set deals with Cbl-b. Briefly: siRNA knockdown efficiency by immunoblot in primary human NK cells. It is filed as cell-based. The conditions noted are these: 48 h transduction, vs Scr siRNA. As to the method:
FIG. 8A Primary human NK cells were transduced with Cbl-b siRNA or a scrambled siRNA (Scr siRNA) for 48 h, directly followed by immunoblot analysis to determine the efficiency of siRNA (n=3 donors). […] FIG. 8B qRT-PCR was performed to quantify the level of perform mRNA (n=7 donors) in Cbl-b siRNA- and Scr siRNA-transduced primary human cells incubated without or with IL-15 (10 ng/ml) for 16 h. FIG. 8C The perform protein level in Cbl-b siRNA- and Scr siRNA-transduced primary human NK cells incubated 24 without or with IL-15 (10 ng/ml) for 24 h was measured by immunoblot analysis. The data are representative of four experiments and are summarized in the right panel. Scr, scrambled; *P<0.05, **P<0.01; ns, not significant. Data are presented as mean±SEM.
Transient transfection. Primary human NK cells were transfected with Accell siRNA by using the Accell delivery media from Dharmacon. Gene knockdown efficiency of siRNA was determined with immunoblotting analysis.
Immunoblotting. […] Densitometric analysis was performed to quantify intensity of gel bands with Image J (National Institutes of Health).
Both groups were next incubated without or with IL-15 and co-cultured with ^51Cr labeled MV4-11, Molm-13, or EOL-1 leukemia cell lines, followed by assessment of specific lysis measured after 4 h of co-culture.
In general terms: Immunoblotting shows a protein as a band on a membrane.

For another data set, the system named is granzyme B. Briefly: Granzyme B (GZMB) mRNA by qRT-PCR in siRNA-transduced NK cells. The format is cell-based, human. The conditions noted are these: without or with IL-15 (10 ng/ml) 16 h, vs Scr siRNA. As to the method:
FIGS. 3A-3E depict the results of a study showing that downregulation of Cbl-b enhances the cytotoxicity of primary human NK cells. (FIGS. 3A and 3B) Primary human NK cells transduced with Cbl-b siRNA or Scr siRNA for 24 h were stimulated without (FIG. 3A) or with (FIG. 3B) a low concentration of IL-15 (2 ng/ml) for 16 h, then co-cultured with ^51Cr labeled Molm-13, MV4-11 or EOL-1 leukemia cell lines for 4 h, followed by quantification of specific tumor cell lysis. Each experiment was repeated with 6 different normal donors. (FIG. 3C) qRT-PCR was performed to quantify the granzyme B (GZMB) mRNA levels (n=8 donors) in siRNA- and Scr siRNA-transduced primary human NK cells incubated without or with IL-15 (10 ng/ml) for 16 h. (FIG. 3D) The concentration of the granzyme B protein in the supernatants of Cbl-b siRNA- and Scr siRNA-transduced primary human NK cells incubated without (688.1 pg/ml vs 525.4 pg/ml; P=0.0232) or with IL-15 (10 ng/ml) for 24 h (8789 pg/ml vs 3397 pg/ml; P=0.0232) was measured by ELISA (n=8 donors). (FIG. 3E) The level of granzyme B protein in Cbl-b siRNA- and Scr siRNA-transduced primary human NK cells incubated without or with IL-15 (10 ng/ml) for 24 h was measured by immunoblot analysis. The data are representative of three experiments. Scr-scrambled; *P<0.05, **P<0.01, ***P<0.001, ****P<0.0001 by One-way or Two-way ANOVA; ns, not significant. […]
Background: Quantitative PCR measures a nucleic acid by following its amplification.

Another data set deals with IFN-γ. Briefly: IFN-γ in supernatants by ELISA. The format is cell-based, human. As for the experimental part: FIGS. 4A-4D depict the results of a study showing that downregulation of Cbl-b increases IFN-γ secretion in IL-15-activated primary human NK cells. (FIG. 4A) RNAseq was conducted using primary human NK cells transduced with either Cbl-b siRNA or Scr siRNA without or with incubation in IL-15 (10 ng/ml) for 16 h (4 donors for each group). […] (FIG. 4B) qRT-PCR was performed to quantify the mRNA levels of IFN-γ (n=6 donors) after IL-15 (10 ng/ml) 6 h stimulation. (FIG. 4C) The percentage of intracellular IFN-γ+ cells in un-transduced NK cells or those transduced with Cbl-b siRNA or Scr siRNA, each activated with IL-15 (10 ng/ml) for 24 h (11.5% vs 4.338%; P=0.0008; n=5 donors). (FIG. 4D) Supernatants were collected after IL-15 (10 ng/ml) for 24 h and IFN-γ concentrations measured by ELISA (18115 pg/ml vs 882.5 pg/ml; P=0.0099; n=7 donors). Scr-scrambled; *P<0.05, **P<0.01, ***P<0.001 by Student's two-tailed paired t-test or One-way ANOVA; ns, not significant. Data presented as mean±SEM.
ELISA. Primary NK cells were plated in an equivalent number of 100,000 cells/well in a 96-well plate in RPMI and supplemented with 10% FBS. Cells were treated with recombinant human IL-15 (10 ng/ml) for 24 h, and cell-free culture supernatant was collected and frozen at −80° C. for later use. IFN-γ concentration was measured by ELISA using anti-IFN-γ antibody from Thermo Fisher Scientific. Granzyme B concentration was measured by ELISA kit purchased from R&D.
To further explore how Cbl-b regulates the functions of primary human NK cells, we performed RNA-seq analyses using enriched primary NK cells from healthy donors transduced with Cbl-b siRNA or Scr siRNA without or with IL-15 treatment for 16 h (n=4 in each group). […] The intracellular results were supported by assessment IFN-γ secretion into the supernatant, in that IL-15-activated primary human NK cells transduced with Cbl-b siRNA expressed 10-fold higher levels of IFN-γ compared to NK cells transduced with Scr siRNA (FIG. 4D).
(In general: In an ELISA, binding on a coated surface is turned into a signal by an enzyme label.)

Take “Cbl-b siRNA: Cbl-b-specific Accell siRNA (Dharmacon), SEQ ID NO:1, CCUUCAUGUUCAGAUGGUU (Accell modified siRNA, pattern not given here)”: the “expression of Cbl-b after siRNA transduction” value in the data set with Cbl-b is reported as “significant decrease”. The “Granzyme B mRNA” value in the data set with granzyme B is recorded as “significantly increased”. The “IFN-γ concentration in supernatants” value in the data set with IFN-γ (IL-15 (10 ng/ml) 24 h, n=7 donors) was determined as 18115 pg/mL. Besides, the “secreted IFN-γ level relative to Scr siRNA” value in the data set with IFN-γ (IL-15-activated) was 10 fold.

Source of the values: patent publication US20240299542A1, “NATURAL KILLER CELLS ENGINEERED TO REDUCE OR ELIMINATE CBL-B AND USES THEREOF” (City of Hope, priority 2021, published 2024).
